# Test results as given in patent US5707966A, “Antithrombotic agents” (Eli Lilly and Company, priority 1995, dated 1998).
# Counter-ions that a name gives are not always drawn. Like-named read-outs stand apart in the source and are kept apart here.
# Columns and labels:
# Format in all cases: biochemical
# [1] = tested on: Human plasma; assay: Human plasma anticoagulation, thrombin time (TT); conditions: concentration required to double the thrombin time, linear extrapolation
# Protocol: (§1) Dog plasma and rat plasma is obtained from conscious mixed-breed hounds (either sex, Hazelton-LRE, Kalamazoo, Mich., U.S.A.) or from anesthetized male Sprague-Dawley rats (Harlan Sprague-Dawley, Inc., Indianapolis, Ind., U.S.A.) by venipuncture into 3.8 percent citrate. Fibrinogen is prepared from in-date ACD human blood as the fraction I-2 according to previous procedures and specifications. […] Human fibrinogen is also purchased as 98 percent pure/plasmin free from American Diagnostica, Greenwich, Conn. Coagulation reagents ACTIN, Thromboplastin, and Human plasma are from Baxter Healthcare Corp., Dade Division, Miami, Fla. Bovine thrombin from Parke-Davis ([…], Mich.) is used for coagulation assays in plasma.
# (§2) Coagulation assay procedures are as previously described. […] A CoAScreener coagulation instrument (American LABor, Inc.) is used for all coagulation assay measurements. The prothrombin time (PT) is measured by adding 0.05 mL saline and 0.05 mL Thromboplastin-C reagent to 0.05 mL test plasma. The activated partial thromboplastin time (APTT) is measured by incubation of 0.05 mL test plasma with 0.05 mL Actin reagent for 120 seconds followed by 0.05 mL CaCl2 (0.02M). The thrombin time (TT) is measured by adding 0.05 mL saline and 0.05 mL thrombin (10 NIH units/mL) to 0.05 mL test plasma. The compounds of Formula I are added to human or animal plasma over a wide range of concentrations to determine prolongation effects on the APTT, PT, and TT assays. Linear extrapolations are performed to estimate the concentrations required to double the clotting time for each assay.
# [2] = tested on: Human plasma; assay: Human plasma anticoagulation, activated partial thromboplastin time (APTT); conditions: concentration required to double the APTT, linear extrapolation
# Protocol: as §1, §2
# [3] = molecular target: Human Thrombin (Homo sapiens, UniProt P00734); assay: Inhibition of amidase activity of thrombin (Kass)
# [4] = molecular target: T1, factor Xa (Homo sapiens, UniProt P00742); assay: Kass with factor Xa, chromogenic substrate; conditions: substrate N-Benzoyl-Ile-Glu-Gly-Arg-p-nitroanilide
# T1 construct: Human factors X, Xa, IXa, XIa, and XIIa are purchased; purchased Enzyme Research Laboratories, South Bend, Ind
# Protocol: (§3) By substantially following the procedures described above for human thrombin, and using other human blood coagulation system serine proteases and proteases of the fibrinolytic system with the appropriate chromogenic substrates, identified below, selectivity of the compounds of the present invention with respect to the coagulation factor serine proteases and with respect to the fibrinolytic system serine proteases are evaluated as well as their substantial lack of interference with serine proteases of the fibrinolytic system. Thrombin inhibitors preferably should spare fibrinolysis induced by urokinase, tissue plasminogen activator (t-PA) and streptokinase. This would be important to the therapeutic use of such agents as an adjunct to streptokinase, t-PA or urokinase thrombolytic therapy and to the use of such agents as an endogenous fibrinolysis-sparing (with respect to t-PA and urokinase) antithrombotic agent. In addition to the lack of interference with the amidase activity of the fibrinolytic proteases, such fibrinolytic system sparing can be studied by the use of human plasma clots and their lysis by the respective fibrinolytic plasminogen activators.
# (§4) Human factors X, Xa, IXa, XIa, and XIIa are purchased from Enzyme Research Laboratories, South Bend, Ind.; human urokinase from Leo Pharmaceuticals, Denmark; and recombinant activated Protein C (aPC) is prepared at Eli Lilly and Co. substantially according to U.S. Patent No. 4,981,952. Chromogenic substrates: N-Benzoyl-Ile-Glu-Gly-Arg-p-nitroanilide (for factor Xa); N-Cbz-D-Arg-Gly-Arg-p-nitroanilide (for factor IXa assay as the factor Xa substrate); Pyroglutamyl-Pro-Arg-p-nitroanilide (for Factor XIa and for aPC); H-D-Pro-Phe-Arg-p-nitroanilide (for factor XIIa); and Pyroglutamyl-Gly-Arg-p-nitroanilide (for urokinase); are purchased from KabiVitrum, Stockholm, Sweden, or from Midwest Biotech, Fishers, Ind. Bovine trypsin is purchased from Worthington Biochemicals, Freehold, N.J., and human plasma kallikrein from Kabi Vitrum, Stockholm, Sweden. Chromogenic substrate H-D-Pro-Phe-Arg-p-nitroanilide for plasma kallikrein is purchased from Kabi Vitrum, Stockholm, Sweden. N-Benzoyl-Phe-Val-Arg-p-nitroanilide, the substrate for human thrombin and for trypsin, is synthesized according to procedures described above for the compounds of the present invention, using known methods of peptide coupling from commercially available reactants or purchased from Midwest Biotech, Fishers, Ind.
# [5] = tested on: Human plasma; assay: Human plasma anticoagulation, prothrombin time (PT); conditions: concentration required to double the PT, linear extrapolation
# Protocol: as §1, §2
# [6] = molecular target: T2, Bovine trypsin (Bos taurus, UniProt P00760); assay: Kass with trypsin, chromogenic substrate; conditions: substrate N-Benzoyl-Phe-Val-Arg-p-nitroanilide
# T2 construct: Bovine trypsin is purchased; purchased Worthington Biochemicals, Freehold, N.J
# T2 sequence (P00760 24-246): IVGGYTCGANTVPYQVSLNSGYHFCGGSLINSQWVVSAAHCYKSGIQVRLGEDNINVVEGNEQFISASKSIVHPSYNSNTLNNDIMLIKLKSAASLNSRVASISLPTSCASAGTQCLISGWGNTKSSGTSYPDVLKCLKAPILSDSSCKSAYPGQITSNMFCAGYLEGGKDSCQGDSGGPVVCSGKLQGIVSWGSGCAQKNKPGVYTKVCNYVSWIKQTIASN
# Protocol: as §3, §4
# [7] = mean over a range of concentrations, […]
# T1 sequence (P00742 235-488 limits assumed): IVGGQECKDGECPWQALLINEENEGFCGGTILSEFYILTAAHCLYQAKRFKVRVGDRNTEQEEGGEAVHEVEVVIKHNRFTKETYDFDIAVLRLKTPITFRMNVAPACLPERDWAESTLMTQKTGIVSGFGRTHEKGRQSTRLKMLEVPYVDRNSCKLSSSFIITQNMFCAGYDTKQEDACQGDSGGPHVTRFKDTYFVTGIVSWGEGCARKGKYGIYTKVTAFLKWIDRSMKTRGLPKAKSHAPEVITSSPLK
# T1 sequence (P00742 41-179 partner limits assumed): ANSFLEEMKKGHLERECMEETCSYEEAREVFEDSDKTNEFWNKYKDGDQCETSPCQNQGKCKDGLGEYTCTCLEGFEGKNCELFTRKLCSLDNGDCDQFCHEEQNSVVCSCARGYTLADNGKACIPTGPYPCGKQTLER
Compound,"Kass Human Thrombin [3, 7]",Kass Xa [4],Kass Trypsin [6],Human Plasma Anticoagulation 2× Clotting time TT [1],Human Plasma Anticoagulation 2× Clotting time APTT [2],Human Plasma Anticoagulation 2× Clotting time PT [5],Kass Human Thrombin [3]
"Nc1ccc(CNC(=O)[C@@H]2CCCN2C(=O)[C@@H](CC2CCCCC2)NCC(=O)O)c(F)c1 [Example 64, HO2 CCH2 -D-Cha-Pro-4-NHCH2 -3-F-C6 H3 NH2.HCl]",15 × 10^6 (L/mole),0.01 × 10^6 (L/mole),,23 ng/mL,900 ng/mL,650 ng/mL,
"NCc1ccc(CNC(=O)[C@@H]2CCCN2C(=O)[C@@H](CC2CCCCC2)NCC(=O)O)cc1 [Example 78, HO2 CCH2 -D-Cha-pro-4-NHCH2 C6 H4 CH2 NH2.HCl]",,,8.6 × 10^6 (L/mole),46 ng/mL,430 ng/mL,760 ng/mL,11
"NCC1CCC(CNC(=O)[C@@H]2CCCN2C(=O)[C@@H](CC2CCCCC2)NCC(=O)O)CC1 (stereo partly drawn) [Example 79, HO2 CCH2 -D-Cha-Pro-4-NHCH2 C6 H10 CH2 NH2.HCl]",2.0 × 10^6 (L/mole),,0.24 × 10^6 (L/mole),140 ng/mL,"1,700 ng/mL","2,400 ng/mL",
"CCS(=O)(=O)N[C@H](CC1CCCCC1)C(=O)N1CCC[C@H]1C(=O)NCc1ccc(C(=N)N)cc1.Cl [Example 80, EtSO2 -D-Cha-Pro-4-NHCH2 C6 H4 C(NH)NH2.HCl]","1,700 × 10^6 (L/mole)",,90 × 10^6 (L/mole),4 ng/mL,40 ng/mL,130 ng/mL,
"CCS(=O)(=O)N[C@H](CC1CCCCC1)C(=O)N1CCC[C@H]1C(=O)NCc1ccnc(N)c1 [Example 83, EtSO2 -D-Cha-Pro-4-NHCH2 -2-aminopyridine.HCl]",2.4 × 10^6 (L/mole),,0.03 × 10^6 (L/mole),91 ng/mL,"1,000 ng/mL","1,300 ng/mL",
"CCS(=O)(=O)N[C@H](CC1CCCCC1)C(=O)N1CCC[C@H]1C(=O)NCc1ccc(N)nc1 [Example 84, EtSO2 -D-Cha-Pro-5-NHCH2 -2-aminopyridine.HCl]",2.9 × 10^6 (L/mole),,0.07 × 10^6 (L/mole),110 ng/mL,"1,500 ng/mL","1,900 ng/mL",
"N=C(N)c1ccc(CNC(=O)[C@@H]2CCCN2C(=O)[C@H](NCC(=O)O)C2CCCCC2)cc1 [Example 86, HOOCCH2 -D-Chg-Pro-p-NHCH2 C6 H4 C(NH)NH2.HCl]",,0.63 × 10^6 (L/mole),,4 ng/mL,81 ng/mL,180 ng/mL,200
"N=C(N)c1ccc(CNC(=O)[C@@H]2CCCN2C(=O)[C@@H](CCC2CCCCC2)NCC(=O)O)cc1 [Example 88, HOOCCH2 -D-hCha-Pro-p-NHCH2 C6 H4 C(NH)NH2.HCl]",410 × 10^6 (L/mole),3.9 × 10^6 (L/mole),,4 ng/mL,100 ng/mL,200 ng/mL,
"CCC(CC)C(=O)N[C@@H](CCC(=O)O)C(=O)N1CCC[C@H]1C(=O)NCc1ccc(C(=N)N)cc1 [Example 90, (C2 H5)2 CHCO-Glu-Pro-p-NHCH2 C6 H4 C(NH)NH2.HCl]",0.61 × 10^6 (L/mole),0.002 × 10^6 (L/mole),,330 ng/mL,"14,500 ng/mL","14,600 ng/mL",
HOOCCH2 -D-hPhe-Pro-p-NHCH2 C6 H4 C(NH)NH2.HCl [Example 87],30 × 10^6 (L/mole),2.5 × 10^6 (L/mole),,9 ng/mL,260 ng/mL,310 ng/mL,

# Continued, in another order:
"Kass Human Thrombin [3, 7]",Kass Xa [4],Kass Trypsin [6],Compound,Human Plasma Anticoagulation 2× Clotting time TT [1],Human Plasma Anticoagulation 2× Clotting time APTT [2],Human Plasma Anticoagulation 2× Clotting time PT [5],Kass Human Thrombin [3]
5.3 × 10^6 (L/mole),,2.1 × 10^6 (L/mole),"CCS(=O)(=O)N[C@H](CC1CCCCC1)C(=O)N1CCC[C@H]1C(=O)NCc1ccc(CN)cc1 [Example 81, EtSO2 -D-Cha-Pro-4-NHCH2 C6 H4 CH2 NH2.HCl]",110 ng/mL,"1,500 ng/mL","2,700 ng/mL",
265 × 10^6 (L/mole),,30.8 × 10^6 (L/mole),"N=C(N)c1ccc(CNC(=O)[C@@H]2CCCN2C(=O)[C@@H](CC2CCCCC2)NCCCC(=O)O)cc1 [Example 85, HOOCCH2 CH2 CH2 -D-Cha-pro-p-NHCH2 C6 H4 C(NH)NH2.HCl]",4.9 ng/mL,100 ng/mL,197 ng/mL,
0.14 × 10^6 (L/mole),0.071 × 10^6 (L/mole),,"N=C(N)c1ccc(CNC(=O)CN(CCc2ccccc2)C(=O)CNCC(=O)O)cc1 [Example 89, HOOCCH2 -Gly-N-C6 H5 CH2 CH2 Gly-p-NHCH2 C6 H4 C(NH)NH2.HCl]",570 ng/mL,"51,000 ng/mL","37,000 ng/mL",
3.6 × 10^6 (L/mole),0.007 × 10^6 (L/mole),,"CCC(CC)C(=O)N[C@@H](CCS(C)(=O)=O)C(=O)N1CCC[C@H]1C(=O)NCc1ccc(C(=N)N)cc1 [Example 91, (C2 H5)2 CHCO-Met(O2)-pro-p-NHCH2 C6 H4 C(NH)NH2.HCl]",63 ng/mL,"3,000 ng/mL","3,500 ng/mL",
130 × 10^6 (L/mole),,7.7 × 10^6 (L/mole),"CS(=O)(=O)CC(=O)N[C@H](CC1CCCCC1)C(=O)N1CCC[C@H]1C(=O)NCc1ccc(C(=N)N)cc1 [Example 92, MeSO2 CH2 CO-D-Cha-Pro-p-NHCH2 C6 H4 C(NH)NH2.HCl]",8.9 ng/mL,210 ng/mL,340 ng/mL,
